Test results as given in ChEMBL document CHEMBL3301546, “MMV Malaria Box yeast growth screening”.

Assays:
Format in all cases: functional
[1] = system: Saccharomyces cerevisiae; test: (§1) MMV: Growth assays were conducted using the prototrophic S. cerevisiae strain JHY222. Each MMV compound (0.1 mM) was tested in minimal media containing dextrose as a carbon source (Yeast Nitrogen Base, Dextrose; YNBD). The growth rate in the presence of each MMV compound was calculated as follows: (i) the first 10 OD readings were averaged and subtracted from all OD readings of the corresponding curve to set the baseline of the growth curve to zero, and (ii) the area under the curve (AUC) was then calculated as the sum of all OD readings. […] A relative growth value was calculated as follows: AUC(DRUG) - AUC(DMSO)/AUC(DMSO); where AUC(DMSO) represents growth measured in a DMSO control well that was on the same microtiter plate of the drug-treated culture.
[2] = system: Saccharomyces cerevisiae; test: as §1, with “ethanol and glycerol” for “dextrose”, “as” for “as a”, “sources” for “source”, “Ethanol, Glycerol; YNBEG).” for “Dextrose; YNBD).”
[3] = system: Saccharomyces cerevisiae; test: as §1, with “rich” for “minimal”, “Extract, Peptone,” for “Nitrogen Base,”, “YPD).” for “YNBD).”

SMILES	Relative Growth [1]	Relative Growth [2]	Relative Growth [3]
CCOc1cc(Cl)c(C(C)NC(=O)c2ccccc2)cc1OCC (stereo not drawn)	-0.0221	-0.1365	0.0477
COc1ccc(C2=C(c3ccc(OC)cc3)C3(c4ccccc4)C(=O)C2(c2ccccc2)C2C(=O)N(c4ccc(C)cc4)C(=O)C23)cc1 (stereo not drawn)	-0.018	-0.0687	0.0057
Cc1cc(N(C)C)nc(Nc2ccc(NC(=O)Nc3ccccc3)cc2)n1	-0.0678	-0.3445	-0.0299
CN1C=C(c2ccc3ccccc3n2)C(c2c[nH]c3ccccc23)c2ccccc21 (stereo not drawn)	0.0287	-0.048	-0.6873
O=C(Nc1cccc(C(F)(F)F)c1)c1cc(Cl)ccc1O	-1.0097	-1.011	-0.651
COc1ccc(CCn2c(=N)c(C(=O)NCc3cccnc3)cc3c(=O)n4cccc(C)c4nc32)cc1	0.0391	-0.1242	0.0999
Cc1cc(Nc2ccc(OCc3ccccc3)cc2)nc2cc(O)ccc12	-0.1895	0.3239	0.0868
COc1cccc(C(=O)Nc2ccc(-c3nc4ccccc4[nH]3)cc2)c1	0.0184	0.0109	-0.0256
COc1ccc2nc(N)nc(C)c2c1	0.0302	-0.0106	-0.0479
Cc1c(C)n(CC(O)CNC2CCCCC2C)c2ccccc12 (stereo not drawn)	-0.0308	-0.2246	-0.0794
CCCCc1c(CCC)c(=N)c2ccccc2n1C.I	0.0105	0.0643	-0.0798
CCOC(=O)c1cn(CC)c2cc(N(C)CCc3ccc(OC)c(OC)c3)c(F)cc2c1=O	-0.8912	-0.9835	-0.6378
CC(C)(C)c1ccc(C2CC3=Nc4ccccc4N(C(=O)c4ccccc4Cl)C(c4ccc(F)cc4)C3=C(O)C2)cc1 (stereo not drawn)	-0.0515	-0.3538	-0.0874
COc1ccc(CN2CCCC(C(=O)c3ccc(C(F)(F)F)cc3)C2)c(O)c1 (stereo not drawn)	-0.4404	-0.9168	-0.2476
CCCc1c(C)nc2ccccc2c1O	-0.1078	-0.1372	-0.0347
O=c1c2c([nH]c3ccccc13)CCCC2	-0.018	-0.326	-0.0433
CCN1CCCC1CNc1[nH]cnc2c3cc(Cl)ccc3nc1-2 (stereo not drawn)	-0.0942	-0.3246	-0.0942
Cc1ccc(-c2cc3nc4c(c(O)n3n2)CCCC4)cc1	-1.0172	-1.0646	-0.3245

SMILES	Relative Growth [1]	Relative Growth [2]	Relative Growth [3]
Cc1ccc(C(=O)c2oc3ccc4c(C)cc(=O)oc4c3c2C)cc1	-0.0077	-0.1519	-0.0457
O=C(Nc1nc(-c2ccccn2)cs1)c1ccccc1Br	-0.0666	0.1503	0.0205
N#Cc1nc(Cc2cccc3ccccc23)oc1N1CCN(C(c2ccccc2)c2ccccc2)CC1	0.059	0.0463	-0.0026
COc1ccc(-c2nonc2NC(=O)c2cccc(C)c2)cc1OC	0.0614	-0.0764	-0.0571
O=C(Nc1ccc(N2CCN(Cc3ccccc3)CC2)cc1)c1cccs1.O=C(O)C(F)(F)F	-0.0637	-0.0052	-0.129
CCOc1c(Br)cc(C2C(C(=O)OC)=CN(C)C=C2C(=O)OC)cc1OC	0.0663	-0.0572	-0.0344
CCCc1c(C)nc2ccc(Br)cc2c1O	-0.0231	-0.1859	0.0054
O=C(NC1CCN(Cc2ccccc2)CC1)c1cc2nc(-c3ccc(Cl)s3)cc(C(F)(F)F)n2n1	0.0049	-0.0027	0.0199
O=C(Nc1ccc(-c2nc3ccccc3[nH]2)cc1)c1ccc(Cl)c(Cl)c1	0.027	0.0462	0.0053
CCn1c(CN2CCN(Cc3ccccc3)CC2)nc2cc(NC(=O)c3cccs3)ccc21	-0.4968	-0.226	-0.0008
CN(C)c1ccc(C=Cc2nc(=O)c3ccccc3o2)cc1	-0.0045	0.0299	-0.0054
COc1ccccc1CNC(=O)CCn1c(=O)[nH]c2ccsc2c1=O	0.2472	-0.0445	-0.0638
COc1ccc(Br)cc1C1Nc2ccc3ccccc3c2C2=C1C(=O)CC(c1ccccc1)C2 (stereo not drawn)	0.0368	-0.105	-0.0736
COc1cccc(C2(C)Nc3ccccc3-c3nc4ccccc4n32)c1 (stereo not drawn)	-0.0211	-0.0556	0.098
O=C(NCc1ccco1)C1CCN(S(=O)(=O)c2ccc(Br)cc2)CC1	-0.0814	-0.2359	-0.1145
CC(NCc1ccccc1)c1cc(Cl)ccc1O (stereo not drawn)	0.042		-0.0386
O=C(Nc1ccsc1C(=O)NC1CCCCC1)c1ccc(F)cc1	0.1187		-0.9286
